Test results from PubChem BioAssay (NCI).
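Interpolation was linear, between the two tested concentrations surrounding the appropriate level; five concentrations were tested over 48 hours in 96-well plates. Definition used: TGI = concentration required for complete inhibition of growth.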

Tests used:
Assay in all cases: growth of human tumour cells (NCI), 48 h
CAKI-1 renal = system: CAKI-1 renal
DU-145 prostate = system: DU-145 prostate
HL-60(TB) leukemia = system: HL-60(TB) leukemia
K-562 leukemia = system: K-562 leukemia
MCF7 breast = system: MCF7 breast
NCI-H23 lung = system: NCI-H23 lung
RPMI-8226 leukemia = system: RPMI-8226 leukemia
SK-MEL-2 melanoma = system: SK-MEL-2 melanoma
SNB-19 CNS = system: SNB-19 CNS
UACC-62 melanoma = system: UACC-62 melanoma

Structure (SMILES) | TGI (CAKI-1 renal) [µM] | TGI (DU-145 prostate) [µM] | TGI (HL-60(TB) leukemia) [µM] | TGI (K-562 leukemia) [µM] | TGI (MCF7 breast) [µM] | TGI (NCI-H23 lung) [µM] | TGI (RPMI-8226 leukemia) [µM] | TGI (SK-MEL-2 melanoma) [µM] | TGI (SNB-19 CNS) [µM] | TGI (UACC-62 melanoma) [µM]
CCc1ccccc1NNc1cc(=O)[nH]c(=O)[nH]1 | 21.5 | > 100 | > 100 | > 100 | 39.1 | > 100 | > 100 | 56.2 | 43.5 | 35.9
O=C1Nc2ccccc2/C1=c1\[nH]c(=O)/c(=C\c2ccc(OCc3ccccc3)cn2)[nH]c1=O | > 100 | > 100 | > 100 | 75.9 | > 100 | > 100 | > 100 | > 100 | > 100 | > 100
CC1CC(=O)N(N(C)C)C(C#N)(C#N)C1(C#N)C#N (stereo not given) | 5.23 | 32.5 | 4.83 | > 66.3 | > 100 | 43.8 | 32 | 59.3 | > 61.8 | 39.3
COc1cc2nc(-c3cccs3)[nH]c(=O)c2cc1OC | > 100 | > 100 | > 100 | > 100 | > 100 | > 100 | > 100 | > 100 | > 100 | > 100
C/C1=C\C=C(\C(C)C)CC/C(C(=O)O)=C\CC/C(C)=C/CC1 | 88.3 | > 100 | 56.8 | 74.8 | 34.8 | 42.7 | 42.2 | 32.8 | 51.2 | 25.8
COc1cc(N(Cc2ccc3oc(=O)c(-c4ccccc4)nc3c2)Cc2ccc3oc(=O)c(-c4ccccc4)nc3c2)cc(OC)c1OC | > 10 | > 10 | > 10 | > 10 | > 10 | > 10 | > 10 | > 10 | > 10 | > 10
COc1cc(C2c3cc4c(cc3OC(N3CCNCC3)C2C)OCO4)cc(OC)c1OC (stereo not given) | 4.29 | > 28.5 | 0.929 | 10.9 | 66.1 | > 100 | 17.3 | > 40.6 | > 82.3 | 14.9
CCN(CC)c1ccc(/C=C/C=C2C(=O)NC(=S)NC2=O)cc1 | > 100 | > 100 | 11 | > 75.1 | > 100 | > 100 | > 100 | > 100 | > 100 | > 100
CN(C)c1cccc(NC2=NCCO2)c1 | > 100 | > 100 | 50.5 | > 100 | > 100 | 85.3 | > 100 | 48.7 | > 100 | > 100
CCOc1cc(NC(C)=O)ccc1C(=O)NN1C(=O)CSC1c1ccccc1 (stereo not given) | > 100 | > 100 | > 100 | > 100 | > 100 | > 100 | > 100 | > 100 | > 100 | > 100
